Results as given in patent US6979686B1, “Substituted pyrazoles as p38 kinase inhibitors” (Pharmacia Corporation, priority 2001, dated 2005).
Read-outs that look alike come from different tables or passages of the source.

Key:
human p38 kinase alpha = target: T1, human p38 kinase alpha (Homo sapiens, UniProt Q16539); test: p38 kinase in vitro assay, phosphorylation of biotinylated PHAS-I with 32P-ATP; assay type: biochemical; details: for P38 alpha kinase % inhib @ conc. (uM): @ 1.0 uM; for IC50: read-out: P38 alpha kinase IC50
T1 construct: GST (N, cleaved yes); made in house; host or cells: E. coli DH10B
T1 sequence (Q16539 whole entry): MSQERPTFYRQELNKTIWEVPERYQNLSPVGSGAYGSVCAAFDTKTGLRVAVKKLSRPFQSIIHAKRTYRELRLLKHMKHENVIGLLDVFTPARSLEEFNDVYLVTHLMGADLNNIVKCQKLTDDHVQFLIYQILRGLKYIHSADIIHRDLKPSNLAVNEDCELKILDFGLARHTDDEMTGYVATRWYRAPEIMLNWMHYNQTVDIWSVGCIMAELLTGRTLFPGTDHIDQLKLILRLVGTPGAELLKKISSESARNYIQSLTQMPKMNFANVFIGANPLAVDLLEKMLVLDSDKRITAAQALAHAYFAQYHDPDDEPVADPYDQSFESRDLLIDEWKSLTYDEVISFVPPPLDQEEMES

[1] = system: TNF alpha, BALB/c mice injected with LPS; test: Mouse model of LPS-induced TNF alpha production; assay type: in vivo; details: for mLPS 8 h percent inhibition: head '8 h'
Experimental: Mouse Model of LPS-induced TNF Alpha Production:
TNF alpha was induced in 10-12 week old BALB/c female mice by tail vein injection with 100 ng lipopolysaccharide (from S. Typhosa) in 0.2 ml saline. One hour later mice were bled from the retroorbital sinus and TNF concentrations in serum from clotted blood were quantified by ELISA.
Efficacy was determined at each time point as percent inhibition of serum TNF levels relative to LPS injected mice that received vehicle only.
In vivo assessment of the ability of the compounds to inhibit LPS-stimulated TNP release in the mouse is shown in the column identified as: • “Mouse LPS Model, % TNF inhib @ dose @ predose time” wherein in the dose is milligram per kilogram (mpk) administered by oral gavage and the predose time indicates the number of hours before LPS challenge when the compound is administered.

[2] = system: TNF-α, U937 human histiocytic lymphoma cell line; test: LPS stimulation of TNF production by U937 cells; assay type: cell-based
Outline: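 U937 cells differentiated 24 h with 20 ng/ml PMA, rested 24-48 h, used at 2 million cells/ml. Compounds in 0.1% DMSO final; LPS (E. coli, 100 ng/ml final) stimulation for 4 h at 37° C. Released TNF-α measured by ELISA; IC50 (μM).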

[3] = 30 mpk oral gavage, −6 h before LPS challenge
[4] = TNF production, human U937 cells stimulated with LPS, read-out: U937 Cell IC50
[5] = Mus musculus, 30 mpk oral gavage, predose time not printed ("@ -"), read-out: Mouse LPS Model % TNF inhib @ dose @ predose time
[6] = Table 6, mouse LPS, dose 30, oral gavage
[7] = Table 6, U937 cell assay, read-out: U937 IC50
[8] = in vitro P38-alpha kinase inhibition
[9] = Mus musculus, 30 mpk oral gavage, −6 h before LPS challenge, read-out: Mouse LPS Model % TNF inhib @ dose @ predose time

C=CCOC(=O)NCCCc1[nH]nc(-c2ccc(F)cc2)c1-c1ccncc1 [Example B-1162]
P38 alpha kinase % inhib @ conc. (uM) (human p38 kinase alpha): 79.0% @ | Mouse LPS Model % TNF inhib @ dose @ predose time [1, 3]: 40% @ 30 mpk @ −6 h | IC50 [2, 4]: 590 nM

COCC(=O)N1CCC(c2[nH]nc(-c3ccc(F)cc3)c2-c2ccncc2)CC1 [Example B-1368]
IC50 (human p38 kinase alpha; in vitro P38-alpha kinase): 31 nM | inhibition in vivo at 30 mg/kg [1, 5]: 44%

O=C(c1ccccc1F)N1CCC(c2[nH]nc(-c3ccc(F)cc3)c2-c2ccncc2)CC1 [Example B-1372]
IC50 (human p38 kinase alpha; in vitro P38-alpha kinase): < 100 nM | inhibition in vivo at 30 mg/kg [1, 5]: 48% | IC50 ([2]; Homo sapiens, U-937, TNF production, human U937 cells stimulated with LPS, read-out: U937 Cell IC50): 410 nM

Fc1ccc(CNc2cc(-c3cn(CCN4CCOCC4)nc3-c3ccc(F)cc3)ccn2)cc1 [Example A-276, N-[(4-fluorophenyl)methyl]-4-[3(or 5)-(4-fluorophenyl)-1-[[2-(4-morpholinyl)ethyl]-1H-pyrazol-4-yl]-2-pyridinamine]
mLPS 8 h percent inhibition [1, 6]: −24% | IC50 [2, 7]: 450 nM

CC(C)C(=O)NC(C)c1[nH]nc(-c2ccc(F)cc2)c1-c1ccncc1 (centres unmarked) [Example B-0532]
IC50 (human p38 kinase alpha; [8]): 450 nM | inhibition in vivo at 30 mg/kg [1, 9]: 41% | IC50 ([2]; Homo sapiens, U-937, TNF production in human U937 cells stimulated with LPS, read-out: U937 Cell IC50): 1010 nM

OCCn1cc(-c2ccnc(NCc3ccc(F)cc3)c2)c(-c2ccc(F)cc2)n1 [Example A-283, 3 (or 5)-(4-fluorophenyl)-4-[2-[[(4-fluorophenyl)methyl]amino]-4-pyridinyl]-1H-pyrazole-1-ethanol]
mLPS 8 h percent inhibition [1, 6]: −20% | IC50 [2, 7]: 800 nM

Cn1cc(-c2ccnc(NCCO)c2)c(-c2ccc(F)cc2)n1 [Example A-281, 2-[[4-[3-(4-fluorophenyl)-1-methyl-1H-pyrazol-4-yl]-2-pyridinyl]amino]ethanol]
mLPS 8 h percent inhibition [1, 6]: 22%

Fc1ccc(CNc2cc(-c3cn(CCN4CCOCC4)nc3-c3ccc(F)cc3)ccn2)cc1 [Example A-285, N-[(4-fluorophenyl)methyl]-4-[3-(4-fluorophenyl)-1-[2-(4-morpholinyl)ethyl]-1H-pyrazol-4-yl]-2-pyridinamine]
mLPS 8 h percent inhibition [1, 6]: 11% | IC50 [2, 7]: 180 nM

O=C(NCCCc1[nH]nc(-c2ccc(F)cc2)c1-c1ccncc1)c1ccccc1I [Example B-1159]
P38 alpha kinase % inhib @ conc. (uM) (human p38 kinase alpha): 66.0% @ | Mouse LPS Model % TNF inhib @ dose @ predose time [1, 3]: 60% @ 30 mpk @ −6 h

Fc1ccc(-c2n[nH]c(NCCCN3CCOCC3)c2-c2ccncc2)cc1 [Example A-286, N-[5-(4-fluorophenyl)-4-(4-pyridinyl)-1H-pyrazol-3-yl]-4-morpholinepropanamine]
mLPS 8 h percent inhibition [1, 6]: 29%

C#CCNc1[nH]nc(-c2ccc(F)cc2)c1-c1ccncc1 [Example A-288, 5-(4-fluorophenyl)-N-2-propynyl-4-(4-pyridinyl)-1H-pyrazol-3-amine]
mLPS 8 h percent inhibition [1, 6]: 40%

CN(C)CCn1cc(-c2ccnc(NCc3ccc(F)cc3)c2)c(-c2ccc(F)cc2)n1 [Example A-274, 4-[1-[2-(dimethylamino)ethyl]-3-(4-fluorophenyl)-1H-pyrazol-4-yl]-N-[[4-fluorophenyl)methyl]-2-pyridinamine]
mLPS 8 h percent inhibition [1, 6]: 21%

CNC(=O)NC(C)c1[nH]nc(-c2ccc(F)cc2)c1-c1ccncc1 (centres unmarked) [Example B-0585]
IC50 (human p38 kinase alpha; [8]): 830 nM | inhibition in vivo at 30 mg/kg [1, 9]: 50%

Fc1ccc(-c2n[nH]cc2-c2ccnc3ccccc23)cc1 [Example A-291]
mLPS 8 h percent inhibition [1, 6]: 36%

Fc1ccc(-c2n[nH]cc2-c2ccnc(NC3CCNCC3)c2)cc1 [Example A-277, 4-[3-(4-fluorophenyl)-1H-pyrazol-4-yl]-N-4-piperadinyl-2-pyridinamine]
mLPS 8 h percent inhibition [1, 6]: 33%

CN(C)CCCNc1[nH]nc(-c2ccc(F)cc2)c1-c1ccncc1 [Example A-287, N′-[5-(4-fluorophenyl)-4-(4-pyridinyl)-1H-pyrazol-3-yl]-N,N-dimethyl-1,3-propanediamine]
mLPS 8 h percent inhibition [1, 6]: −24%

Cn1cc(-c2ccncc2)c(-c2ccc(F)c(F)c2)n1 [Example A-242, 4-[3-(3,4-difluorophenyl)-1-methyl-1H-pyrazol-4-yl]pyridine]
mLPS 8 h percent inhibition [1, 6]: 95%

c1cc(-c2c[nH]nc2-c2ccc3c(c2)OCO3)ccn1 [Example A-228, 4-[3-(1,3-benzodioxol-5-yl)-1H-pyrazol-4-yl]pyridine]
mLPS 8 h percent inhibition [1, 6]: 32%

CC(=O)OCC(=O)NCCCc1[nH]nc(-c2ccc(F)cc2)c1-c1ccncc1 [Example B-1158]
P38 alpha kinase % inhib @ conc. (uM) (human p38 kinase alpha): 74% @ | Mouse LPS Model % TNF inhib @ dose @ predose time [1, 3]: 53% @ 30 mpk @ −6 h | IC50 [2, 4]: 680 nM

OCCn1cc(-c2ccnc(NCc3ccc(F)cc3)c2)c(-c2ccc(F)cc2)n1 [Example A-289, 3-(4-fluorophenyl)-4-[2-[[(4-fluorophenyl)methyl]amino]-4-pyridinyl]-1H-pyrazole-1-ethanol]
mLPS 8 h percent inhibition [1, 6]: 44% | IC50 [2, 7]: 140 nM

Fc1cc(-c2c[nH]nc2-c2ccc(Cl)cc2)ccn1 [Example A-240]
mLPS 8 h percent inhibition [1, 6]: 78%

Cc1ccc(F)cc1S(=O)(=O)NC(C)c1[nH]nc(-c2ccc(F)cc2)c1-c1ccncc1 (centres unmarked) [Example B-0451]
IC50 (human p38 kinase alpha; [8]): 71 nM | inhibition in vivo at 30 mg/kg ([1]; Mus musculus, 30 mpk oral gavage, −5 h before LPS challenge, read-out: Mouse LPS Model % TNF inhib @ dose @ predose time): 42%

Fc1ccc(-c2nn(CCN3CCOCC3)cc2-c2ccncc2)cc1 [Example A-216, 4-[2-[3-(4-fluorophenyl)-4-(4-pyridinyl)-1H-pyrazol-1-yl]ethyl]morpholine]
mLPS 8 h percent inhibition [1, 6]: 27%

Cc1cccc(-c2nn(C)cc2-c2ccnc(C)c2)c1 [Example A-235, 2-methyl-4-[1-methyl-3 (or 5)-(3-methylphenyl)-1H-pyrazol-4-yl]pyridine]
inhibition in vivo at 30 mg/kg ([1]; Table 6, mouse LPS, 1 h before LPS, 30 mpk, oral gavage, read-out: mLPS 1 h, 30 mpk percent inhibition): 56%

CS(=O)(=O)N1CCC(c2[nH]nc(-c3ccc(F)cc3)c2-c2ccncc2)CC1 [Example B-1376]
IC50 (human p38 kinase alpha; in vitro P38-alpha kinase): 9 nM | Mouse LPS Model % TNF inhib @ dose @ predose time [1, 3]: 3.0% @ 30 mpk @ −6 H

OCCn1ncc(-c2ccnc(NCc3ccc(F)cc3)c2)c1-c1ccc(F)cc1 [Example A-290, 5-(4-fluorophenyl)-4-[2-[[(4-fluorophenyl)methyl]amino]-4-pyridinyl]-1H-pyrazole-1-ethanol]
mLPS 8 h percent inhibition [1, 6]: 4%

Fc1ccc(-c2n[nH]c(NCCN3CCOCC3)c2-c2ccncc2)cc1 [Example A-218, N-[5-(4-fluorophenyl)-4-(4-pyridinyl)-1H-pyrazol-3-yl]-4-morpholineethanamine]
mLPS 8 h percent inhibition [1, 6]: 18%

CCN(CC)CCn1cc(-c2ccnc(F)c2)c(-c2ccc(F)cc2)n1 [Example A-278, N,N-diethyl-3-(4-fluorophenyl)-4-(2-fluoro-4-pyridinyl)-1H-pyrazole-1-ethanamine]
mLPS 8 h percent inhibition [1, 6]: 62%

Cn1cc(-c2ccncc2)c(-c2ccc(F)cc2)n1 [Example A-212, 4-[3-(4-fluorophenyl)-1-methyl-1H-pyrazol-4-yl]pyridine]
mLPS 8 h percent inhibition ([1]; Table 6, mouse LPS, dose 10, oral gavage): 20%

Cn1cc(-c2ccncc2)c(-c2ccc(C(F)(F)F)cc2)n1 [Example A-252, 4-[1-methyl-3-[4-(trifluoromethyl)phenyl]-1H-pyrazol-4-yl]pyridine]
mLPS 8 h percent inhibition [1, 6]: 48%

Fc1ccc(-c2n[nH]cc2-c2ccnc(F)c2)cc1 [Example A-249, 2-fluoro-4-[3-(4-fluorophenyl)-1H-pyrazol-4-yl]pyridine]
mLPS 8 h percent inhibition [1, 6]: 73%

C#CCn1cc(-c2ccncc2)c(-c2ccc(F)cc2)n1 [Example A-294, 4-[3-(4-fluorophenyl)-1-(2-propynyl)-1H-pyrazol-4-yl]pyridine]
mLPS 8 h percent inhibition [1, 6]: 61%

OCCCNc1cc(-c2c[nH]nc2-c2ccc(F)cc2)ccn1 [Example A-282, 3-[[4-(3-(4-fluorophenyl)-1H-pyrazol-4-yl]-2-pyridinyl]amino]-1-propanol]
mLPS 8 h percent inhibition [1, 6]: 30%
